The nature of data set [1]: human metabolic stability half-life assay. To be noted: microsomes, human liver microsomes. The procedure:
Metabolic Stability Half-Life Panel
Incubation with Liver Microsomes

Data set [2] has as its system human triple negative breast carcinoma cell line MDA-MB-468. Nature of the data set: Human Tumor Xenograft Models in Mice: MDA-MB-468. The class given is in vivo. To be noted: PO, QDx15 (10 day on-2 day off-5 day on); FIG. 15; result in words. The procedure: (§1) Dosed orally; PO, QDx15 (10 day on-2 day off-5 day on). Each symbol represents the median tumor burden of a group of 8 mice.
(§2) Human Tumor Xenograft Models in Mice
(§3) Mice were fed food and water ad libitum.
(§4) Preclinical Chemotherapy Trials
(§5) Tumor growth inhibition is calculated as follows: […]
(§6) In Vivo Antitumor Activity
(A xenograft is tissue or cells of one species grown in another, often human tumour cells in immunodeficient mice.)

Another data set relates to human Notch 1. Briefly: Notch-CBF1 Transactivation Assay (Notch 1). Format: cell-based. Conditions: read-out: Notch 1 IC50; Notch-CBF1 transactivation luciferase assay in transfected HeLa cells; some values are an average of N experiments. The procedure, abridged:
(§7)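 HeLa cells transiently co-transfected with a truncated Notch receptor plus a 4×CBF1-site luciferase reporter were exposed to compounds (5 μM to 8.4×10^−5 μM, 3-fold dilutions) for 18 hours at 37° C. Luciferase was read after Steady-Glo. Inhibition was normalized between DMSO (total) and 0.5 μM in-house inhibitor (background) wells.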

The next data set concerns human Notch 3. Briefly: Notch-CBF1 Transactivation Assay (Notch 3). The class given is cell-based. To be noted: read-out: Notch 3 IC50; Notch-CBF1 transactivation luciferase assay in transfected HeLa cells; some values are an average of N experiments. The procedure, abridged:
as §7

Data set [3] has as its system human triple negative breast carcinoma cell line MDA-MB-157. Nature of the data set: Human Tumor Xenograft Models in Mice: MDA-MB-157. Conditions: PO, QDx15 (10 day on-2 day off-5 day on); FIG. 14; result in words. The class given is in vivo. As for the experimental part:
as §1, §2, §3, §4, §5, §6

Data set [4] has as its system Human T-cell acute lymphoblastic leukemia cell line TALL-1. Nature of the data set: Human Tumor Xenograft Models in Mice: TALL-1. To be noted: for Antitumor Activity in TALL-1 (LCK), QD dosing: Log Cell Kill, oral administration, schedule QDx10, dose 20 (Ex 1, 52), 12 (Ex 10), 40 (Ex 40), dose unit not given; for antitumor activity in the Human Tumor Xenograft Models in mice: oral administration (PO) either BID and/or QD, Table 24 (TALL-1). The class given is in vivo.

The subject of data set [5] is human PAT70 pancreatic carcinoma cell line. Nature of the data set: Human Tumor Xenograft Models in Mice: PAT70. The class given is in vivo. Conditions: PO, QDx15 (10 day on-2 day off-5 day on); FIG. 16; result in words. As for the experimental part: as §1, §2, §3, §4, §5, §6
[6] abbreviates: pH 7.4, CYP-mediated metabolic stability half life, NADPH-dependent.
[7] abbreviates: pH 7.4, HLM (t1/2, min), CYP-mediated (NADPH-dependent), 0.5 μM compound, 45 min time course, some values are an average of N experiments.

One may read the half-life as the time in which the quantity being followed falls by half. What is called IC50 is the midpoint of a concentration-inhibition curve.

For the compound `NC(=O)[C@@H](CC1CC1)[C@@H](CCC(F)(F)F)C(=O)N[C@H]1N=C(c2ccccc2)c2cccc(F)c2NC1=O` [Example 1, (2R,3S)-3-(Cyclopropylmethyl)-N-((3S)-9-fluoro-2-oxo-5-phenyl-2,3-dihydro-1H-1,4-benzodiazepin-3-yl)-2-(3,3,3-trifluoropropyl)succinamide], the half-life at 0.5 µM is no less than 30 min in data set [1] (setting [6]) and 85 min in data set [1] (setting [7]). In addition, the “in vivo antitumor activity, MDA-MB-468 xenograft” value in data set [2] is given as “exhibited antitumor activity”. Further, the IC50 in the data set with human Notch 1 is 4.2 nM; with human Notch 3, 6.2 nM. In addition, in data set [3], the “in vivo antitumor activity, MDA-MB-157 xenograft” value is listed as “exhibited antitumor activity”. Moreover, in data set [4], the “Antitumor Activity in TALL-1 (LCK), QD dosing” value is listed as 4.5. For the same compound, the “in vivo antitumor activity, TALL-1 xenograft” value in data set [4] (PO, QDx10, FIGS. 12-13, result in words) was “exhibited antitumor activity”. Further, the “antitumor activity in the Human Tumor Xenograft Models in mice” value in data set [4] (result in words) was “showed antitumor activity”. For the same compound, the “in vivo antitumor activity, PAT70 xenograft” value in data set [5] is recorded as “exhibited antitumor activity”.

For the compound `CCC[C@H](C(N)=O)[C@@H](CCC(F)(F)F)C(=O)N[C@H]1N=C(c2ccccc2)c2cccc(OC)c2NC1=O` [Example 40, (2R,3S)—N-((3S)-9-Methoxy-2-oxo-5-phenyl-2,3-dihydro-1H-1,4-benzodiazepin-3-yl)-3-propyl-2-(3,3,3-trifluoropropyl)succinamide], the half-life at 0.5 µM in data set [1] (setting [6]) was no less than 30 min; in data set [1] (setting [7]), 34 min. The IC50 with human Notch 1 was found to be 6.8 nM; with human Notch 3, 6.9 nM. Further, the “Antitumor Activity in TALL-1 (LCK), QD dosing” value in data set [4] came out at 1.4. Also, the “antitumor activity in the Human Tumor Xenograft Models in mice” value in data set [4] (result in words) is “showed antitumor activity”.

(Values after patent US9242941B2, “Alkyl, fluoroalkyl-1,4-benzodiazepinone compounds” (BRISTOL-MYERS SQUIBB COMPANY, priority 2012, dated 2016).)
